In ChEMBL document CHEMBL1128468, “Amino acid side chain descriptors for quantitative structure-activity relationship studies of peptide analogues” (J Med Chem, 1995):
Peptide text beside a SMILES is read from it.

Experiments:
Oxytocin receptor = target: T1, Oxytocin receptor (Rattus norvegicus, UniProt P70536); experiment: Biological activity against Oxytocin receptor in rat
T1 sequence (P70536 whole entry): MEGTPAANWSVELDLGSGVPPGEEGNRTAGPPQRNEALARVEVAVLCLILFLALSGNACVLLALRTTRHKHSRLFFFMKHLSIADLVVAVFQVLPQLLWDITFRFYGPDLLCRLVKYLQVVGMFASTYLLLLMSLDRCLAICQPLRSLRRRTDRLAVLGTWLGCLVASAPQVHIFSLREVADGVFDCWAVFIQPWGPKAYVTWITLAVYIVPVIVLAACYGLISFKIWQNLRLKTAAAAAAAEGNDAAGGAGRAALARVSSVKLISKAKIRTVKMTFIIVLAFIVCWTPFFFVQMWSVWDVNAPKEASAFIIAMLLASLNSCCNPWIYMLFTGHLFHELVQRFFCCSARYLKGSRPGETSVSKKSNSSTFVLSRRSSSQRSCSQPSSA

Substance-K receptor [1] = target: T2, Substance-K receptor (Rattus norvegicus, UniProt P16610); experiment: Antagonism against Tachykinin receptor 2 in rat vas deferens(RVD); assay type: functional; conditions: read-out: pA2 (converted)
T2 sequence (P16610 whole entry): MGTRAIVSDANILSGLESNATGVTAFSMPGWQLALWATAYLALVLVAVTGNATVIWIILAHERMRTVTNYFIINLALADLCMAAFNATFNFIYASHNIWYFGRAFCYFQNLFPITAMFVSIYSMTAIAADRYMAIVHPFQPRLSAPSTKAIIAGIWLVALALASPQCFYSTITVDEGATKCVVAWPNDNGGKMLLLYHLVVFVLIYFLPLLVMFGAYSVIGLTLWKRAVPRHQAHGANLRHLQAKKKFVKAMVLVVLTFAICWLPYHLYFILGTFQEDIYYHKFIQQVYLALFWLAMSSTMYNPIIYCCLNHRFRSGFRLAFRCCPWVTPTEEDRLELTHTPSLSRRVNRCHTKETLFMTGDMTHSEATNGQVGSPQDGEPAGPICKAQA

Substance-K receptor [2] = target: T3, Substance-K receptor (Mesocricetus auratus, UniProt P51144); experiment: Antagonist activity against Tachykinin receptor 2 was measured by Hamster isolated trachea(HT) assay.; assay type: functional, tissue-based; conditions: read-out: pA2 (converted)
T3 sequence (P51144 whole entry): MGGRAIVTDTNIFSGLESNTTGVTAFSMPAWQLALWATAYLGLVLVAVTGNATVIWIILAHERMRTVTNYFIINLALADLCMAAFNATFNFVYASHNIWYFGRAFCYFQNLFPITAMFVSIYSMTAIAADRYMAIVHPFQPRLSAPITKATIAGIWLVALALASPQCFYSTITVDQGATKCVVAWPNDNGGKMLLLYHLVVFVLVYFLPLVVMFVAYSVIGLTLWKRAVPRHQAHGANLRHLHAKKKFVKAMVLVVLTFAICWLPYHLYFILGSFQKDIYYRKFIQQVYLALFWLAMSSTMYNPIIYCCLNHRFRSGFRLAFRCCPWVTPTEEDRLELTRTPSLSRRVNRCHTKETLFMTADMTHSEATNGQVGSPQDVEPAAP

Substance-K receptor [3] = target: T4, Substance-K receptor (Oryctolagus cuniculus, UniProt P79218); experiment: Antagonist activity against Tachykinin receptor 2 was measured by Rabbit pulmonary artery(RPA) assay.; assay type: functional; conditions: read-out: pA2 (converted)
T4 sequence (P79218 whole entry): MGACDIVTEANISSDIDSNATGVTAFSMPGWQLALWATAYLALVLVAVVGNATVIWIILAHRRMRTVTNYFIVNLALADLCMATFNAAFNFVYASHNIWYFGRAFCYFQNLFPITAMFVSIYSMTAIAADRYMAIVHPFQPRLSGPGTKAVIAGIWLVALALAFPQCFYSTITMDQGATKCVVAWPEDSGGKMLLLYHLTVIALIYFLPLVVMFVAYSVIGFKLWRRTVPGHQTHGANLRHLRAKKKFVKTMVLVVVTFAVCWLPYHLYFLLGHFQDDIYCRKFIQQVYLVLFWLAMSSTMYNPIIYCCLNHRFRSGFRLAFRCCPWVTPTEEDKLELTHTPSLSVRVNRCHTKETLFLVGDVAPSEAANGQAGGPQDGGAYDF

[4] = Bitter tasting threshold was expressed as log 1/T.; assay type: functional
[5] = target: Angiotensin-converting enzyme (Homo sapiens, UniProt P12821); experiment: Biological activity was measured against Angiotensin I converting enzyme; conditions: read-out: Log 1/IC50 (converted)
Sequence of Angiotensin-converting enzyme (P12821 whole entry): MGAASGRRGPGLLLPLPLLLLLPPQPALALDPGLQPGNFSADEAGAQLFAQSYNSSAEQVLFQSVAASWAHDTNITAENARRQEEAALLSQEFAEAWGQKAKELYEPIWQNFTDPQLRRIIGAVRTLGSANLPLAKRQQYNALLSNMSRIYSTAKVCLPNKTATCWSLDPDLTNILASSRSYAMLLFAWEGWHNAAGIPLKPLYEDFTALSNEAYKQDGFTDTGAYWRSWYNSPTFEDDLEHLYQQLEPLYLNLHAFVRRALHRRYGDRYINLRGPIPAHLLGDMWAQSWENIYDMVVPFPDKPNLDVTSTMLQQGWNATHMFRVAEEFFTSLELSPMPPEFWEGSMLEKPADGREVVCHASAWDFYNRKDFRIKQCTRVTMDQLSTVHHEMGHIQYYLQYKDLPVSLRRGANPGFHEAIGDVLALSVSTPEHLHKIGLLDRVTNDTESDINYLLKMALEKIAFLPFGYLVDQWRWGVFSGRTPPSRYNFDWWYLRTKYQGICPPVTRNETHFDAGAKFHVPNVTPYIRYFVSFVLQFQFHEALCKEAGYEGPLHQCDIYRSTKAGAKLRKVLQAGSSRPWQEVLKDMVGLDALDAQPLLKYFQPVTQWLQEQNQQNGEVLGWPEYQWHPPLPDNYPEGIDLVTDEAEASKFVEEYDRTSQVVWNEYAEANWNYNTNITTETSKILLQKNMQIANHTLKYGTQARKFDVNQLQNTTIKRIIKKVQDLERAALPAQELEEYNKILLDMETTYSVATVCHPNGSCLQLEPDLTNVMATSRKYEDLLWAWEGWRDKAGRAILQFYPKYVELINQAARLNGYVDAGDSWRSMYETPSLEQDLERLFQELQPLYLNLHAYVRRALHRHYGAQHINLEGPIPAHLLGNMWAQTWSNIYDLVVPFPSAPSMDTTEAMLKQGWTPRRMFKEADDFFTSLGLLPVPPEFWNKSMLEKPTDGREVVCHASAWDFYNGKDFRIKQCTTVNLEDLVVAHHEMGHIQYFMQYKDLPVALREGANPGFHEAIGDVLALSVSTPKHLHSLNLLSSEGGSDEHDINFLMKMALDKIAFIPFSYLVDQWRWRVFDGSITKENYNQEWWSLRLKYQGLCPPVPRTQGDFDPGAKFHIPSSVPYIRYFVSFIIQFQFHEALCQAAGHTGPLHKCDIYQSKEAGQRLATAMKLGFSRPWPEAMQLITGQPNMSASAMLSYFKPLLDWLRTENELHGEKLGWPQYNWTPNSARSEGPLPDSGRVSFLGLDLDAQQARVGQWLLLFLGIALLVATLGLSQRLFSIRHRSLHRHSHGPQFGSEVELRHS

Compound | pA2 (Oxytocin receptor) | Kb (Substance-K receptor [1]) [µM] | Kb (Substance-K receptor [2]) [µM] | Kb (Substance-K receptor [3]) [µM] | Log 1/T [4] | IC50 [5] [µM]
CC[C@H](C)[C@H](NC(=O)[C@@H](Cc1c[nH]c2ccccc12)NC(=O)CC1(S)CCCCC1)C(=O)N[C@H](CC(N)=O)C(=O)N[C@@H](CC(N)=O)C(=O)N[C@@H](CS)C(=O)N1CCC[C@H]1C(=O)N[C@@H](CCCN=C(N)N)C(=O)NCC(N)=O | 5.41 |  |  |  |  | 
CC(C)[C@H](NC(=O)[C@@H](Cc1c[nH]c2ccccc12)NC(=O)[C@H](Cc1ccc(O)cc1)NC(=O)[C@@H](N)CC(=O)O)C(=O)N[C@H](Cc1c[nH]c2ccccc12)C(=O)N[C@H](Cc1c[nH]c2ccccc12)C(=O)N[C@@H](CCCN=C(N)N)C(=O)O |  | 0.251 | 1.58 | 0.0224 |  | 
CC(C)C[C@H](NC(=O)[C@@H](N)C(C)C)C(=O)O (H-Val-Leu-OH) |  |  |  |  | 2 | 
NCC(=O)N[C@@H](Cc1ccccc1)C(=O)O (H-Gly-Phe-OH) |  |  |  |  | 1.8 | 631
CC(C)[C@H](NC(=O)[C@@H](Cc1c[nH]c2ccccc12)NC(=O)[C@H](Cc1ccc(O)cc1)NC(=O)[C@@H](N)CC(=O)O)C(=O)NCC(=O)N[C@H](Cc1c[nH]c2ccccc12)C(=O)N[C@@H](CCCN=C(N)N)C(=O)O |  | 18.6 | 6.31 | 19.5 |  | 
CSCC[C@H](NC(=O)[C@@H](Cc1c[nH]c2ccccc12)NC(=O)[C@@H](Cc1c[nH]c2ccccc12)NC(=O)[C@@H](NC(=O)[C@@H](Cc1c[nH]c2ccccc12)NC(=O)[C@H](Cc1ccc(O)cc1)NC(=O)[C@@H](N)CC(=O)O)C(C)C)C(=O)O |  | 0.38 | 1.45 | 0.0891 |  | 
C[C@H](NC(=O)[C@@H](Cc1c[nH]c2ccccc12)NC(=O)[C@H](Cc1ccc(O)cc1)NC(=O)[C@@H](N)CC(=O)O)C(=O)N[C@H](Cc1c[nH]c2ccccc12)C(=O)N[C@H](Cc1c[nH]c2ccccc12)C(=O)N[C@@H](CCCCN)C(=O)O |  | 0.295 | 0.355 | 1.35 |  | 
CC(C)[C@H](NC(=O)[C@@H](Cc1c[nH]c2ccccc12)NC(=O)[C@H](Cc1c[nH]c2ccccc12)NC(=O)[C@@H](N)CC(=O)O)C(=O)N[C@H](Cc1c[nH]c2ccccc12)C(=O)N[C@H](Cc1c[nH]c2ccccc12)C(=O)N[C@@H](CCCN=C(N)N)C(=O)O |  | 0.339 | 11.2 | 6.31 |  | 
CC(C)[C@H](NC(=O)[C@@H](Cc1c[nH]c2ccccc12)NC(=O)[C@H](Cc1ccc(O)cc1)NC(=O)[C@@H](N)CC(N)=O)C(=O)N[C@H](Cc1c[nH]c2ccccc12)C(=O)N[C@H](Cc1c[nH]c2ccccc12)C(=O)N[C@@H](CCCN=C(N)N)C(=O)O |  | 0.347 | 1.17 | 0.0646 |  | 
C[C@H](N)C(=O)N[C@@H](Cc1ccccc1)C(=O)O |  |  |  |  | 1.72 | 191
CC(C)[C@H](NC(=O)[C@@H](Cc1c[nH]c2ccccc12)NC(=O)[C@H](Cc1ccc(O)cc1)NC(=O)[C@@H](N)CC(=O)O)C(=O)N[C@H](Cc1c[nH]c2ccccc12)C(=O)N[C@H](Cc1c[nH]c2ccccc12)C(=O)N[C@@H](Cc1ccccc1)C(=O)O |  | 0.288 | 0.933 | 1.26 |  | 
CC(C)[C@H](NC(=O)[C@@H](Cc1c[nH]c2ccccc12)NC(=O)[C@H](Cc1ccc(O)cc1)NC(=O)[C@@H](N)CC(=O)O)C(=O)N[C@H](Cc1c[nH]c2ccccc12)C(=O)N[C@H](Cc1c[nH]c2ccccc12)C(=O)N[C@@H](Cc1ccc(O)cc1)C(=O)O |  | 0.191 | 1.74 | 100 |  | 
CC(C)[C@@H](NC(=O)[C@@H](Cc1c[nH]c2ccccc12)NC(=O)[C@@H](Cc1ccc(O)cc1)NC(=O)[C@@H](N)CC(=O)O)C(=O)N[C@H](Cc1c[nH]c2ccccc12)C(=O)N[C@H](Cc1c[nH]c2ccccc12)C(=O)N[C@H](CCCN=C(N)N)C(=O)O |  | 0.851 | 1.1 | 0.407 |  | 
CC(C)[C@@H](NC(=O)[C@@H](Cc1c[nH]c2ccccc12)NC(=O)[C@@H](Cc1ccc(O)cc1)NC(=O)[C@@H](N)CC(=O)O)C(=O)NCC(=O)N[C@H](Cc1c[nH]c2ccccc12)C(=O)N[C@H](CCCN=C(N)N)C(=O)O |  | 0.38 | 0.562 | 0.263 |  | 
CC(C)[C@H](NC(=O)[C@@H](Cc1c[nH]c2ccccc12)NC(=O)[C@@H](Cc1c[nH]c2ccccc12)NC(=O)[C@@H](N)CC(=O)O)C(=O)N[C@H](Cc1c[nH]c2ccccc12)C(=O)N[C@H](Cc1c[nH]c2ccccc12)C(=O)N[C@@H](CCCN=C(N)N)C(=O)O |  | 2.4 | 31.6 | 100 |  | 
CCC(C)[C@H](NC(=O)[C@@H](N)[C@@H](C)CC)C(=O)O (single isomer, unassigned) |  |  |  |  | 2.26 | 
CC[C@H](C)[C@@H]1NC(=O)[C@@H](Cc2c[nH]c3ccccc23)NC(=O)CC2(CCCCC2)SSC(C)(C)[C@H](C(=O)N2CCC[C@H]2C(=O)N[C@@H](CCCN=C(N)N)C(=O)NCC(N)=O)NC(=O)[C@H](CC(N)=O)NC(=O)[C@H](CCC(=O)O)NC1=O | 7.98 |  |  |  |  | 
CC(C)C[C@H](NC(=O)CN)C(=O)O |  |  |  |  | 1.68 | 2510
CC(C)[C@H](NC(=O)[C@H](Cc1c[nH]c2ccccc12)NC(=O)[C@H](Cc1ccc(O)cc1)NC(=O)[C@@H](N)CC(=O)O)C(=O)N[C@H](Cc1c[nH]c2ccccc12)C(=O)N[C@H](Cc1c[nH]c2ccccc12)C(=O)N[C@@H](CCCN=C(N)N)C(=O)O |  | 25.7 | 15.5 | 100 |  | 
CC[C@H](C)[C@H](N)C(=O)N[C@H](C(=O)O)C(C)O (single isomer, unassigned) |  |  |  |  | 1.49 | 
CSCC[C@H](NC(=O)[C@H](CC(C)C)NC(=O)CNC(=O)[C@@H](Cc1c[nH]c2ccccc12)NC(=O)[C@H](Cc1ccccc1)NC(=O)[C@@H](Cc1c[nH]c2ccccc12)NC(=O)[C@@H](N)CC(=O)O)C(=O)O |  | 7.76 | 9.12 | 5.89 |  | 
CC[C@H](C)[C@@H]1NC(=O)[C@@H](Cc2c[nH]c3ccccc23)NC(=O)CC2(CCCCC2)SSC[C@@H](C(=O)N2CCC[C@H]2C(=O)N[C@@H](CCCN=C(N)N)C(=O)NCC(N)=O)NC(=O)[C@H](CC(N)=O)NC(=O)[C@@H]([C@H](C)O)NC1=O | 4.95 |  |  |  |  | 
CC[C@H](C)[C@H](NC(=O)[C@@H](Cc1c[nH]c2ccccc12)NC(=O)CC1(S)CCCCC1)C(=O)N[C@H](CCCNC(N)=O)C(=O)N[C@@H](CC(N)=O)C(=O)N[C@@H](CS)C(=O)N1CCC[C@H]1C(=O)N[C@@H](CCCN=C(N)N)C(=O)NCC(N)=O | 5.51 |  |  |  |  | 
CC[C@H](C)[C@H](NC(=O)[C@@H](Cc1c[nH]c2ccccc12)NC(=O)CC1(S)CCCCC1)C(=O)N[C@H](CCC(N)=O)C(=O)N[C@@H](CC(N)=O)C(=O)N[C@@H](CS)C(=O)N1CCC[C@H]1C(=O)N[C@@H](CCCN=C(N)N)C(=O)NCC(N)=O | 5.24 |  |  |  |  | 
CC(C)C[C@H](NC(=O)[C@@H](Cc1c[nH]c2ccccc12)NC(=O)[C@@H](Cc1c[nH]c2ccccc12)NC(=O)[C@@H](NC(=O)[C@@H](Cc1c[nH]c2ccccc12)NC(=O)[C@H](Cc1ccc(O)cc1)NC(=O)[C@@H](N)CC(=O)O)C(C)C)C(=O)O |  | 0.0794 | 1.2 | 1.62 |  | 
CC(C)[C@H](NC(=O)[C@@H](Cc1c[nH]c2ccccc12)NC(=O)[C@H](Cc1ccc(O)cc1)NC(=O)[C@@H](N)CC(=O)O)C(=O)N[C@H](Cc1c[nH]c2ccccc12)C(=O)N[C@H](Cc1c[nH]c2ccccc12)C(=O)NCC(=O)O |  | 0.0347 | 0.141 | 1.48 |  | 
CC(C)C[C@H](NC(=O)[C@@H](Cc1c[nH]c2ccccc12)NC(=O)[C@@H](NC(=O)[C@@H](Cc1c[nH]c2ccccc12)NC(=O)[C@H](Cc1ccc(O)cc1)NC(=O)[C@@H](N)CC(=O)O)C(C)C)C(=O)N[C@@H](CCCN=C(N)N)C(=O)O |  | 0.224 | 0.646 | 0.191 |  | 
H-DYYVYYR-OH |  | 9.33 | 100 | 100 |  | 
